Patent publication US20250195533A1, “COMBINATION THERAPIES FOR THE TREATMENT OF CANCER” (Erasca, Inc., priority 2020, published 2025)

Legend:
[1] = system: NCI-H358 cells; assay: CellTiter-Glo cellular proliferation/viability assay, fixed concentration of KRAS G12C inhibitor; type: cell-based; details: Homo sapiens, 120 h, compound of Formula I alone, 5 days, read-out: 2D CTG IC50
Text: The combination was studied by a cell viability assay. NCI-H358 cells were split onto a 96-well plate.

[2] = system: NCI-H2122 cells; assay: as above; type: cell-based; details: Homo sapiens, NCI-H2122, 120 h, compound of Formula I alone, 5 days, read-out: 2D CTG IC50

IC50 [1]: 168 nM
IC50 [2]: 2780 nM
SMILES: COCOC[C@H]1C[C@H]2COc3c(Sc4cnc(N5CCC6(CC5)CO[C@@H](C)[C@H]6N)c(CO)n4)ccnc3N2C1 [The compound of Formula I]
